Reference: patent US20240415914A1, “Water Dispersible Cannabinoid Compositions” (priority 2021, published 2024)
Like-named read-outs stand apart in the source and are kept apart here.

Key:
[1] = format: physicochemical; settings: stored at room temperature (21-25° C.)
Method: At each time period, 0.05 g of powder was dissolved in 10 ml-15 of ethanol, diluted to fall within the analytical range, and injected into the LCMSMS for analysis.

[2] = Stability of cannabinoid and Vitamin E components of Beverage 2 (AB Red) stored at 8° C. and 21-25° C., LCMSMS over 570 days
Method: The LCMSMS was calibrated for 0-50 ng/ml cannabinoids with the same resin material used in the preparation of the concentrates. At each time period, 100 μml of beverage was diluted with 10 ml of methanol and injected into the LCMSMS for analysis.

CCCc1cc(O)c2c(c1)OC(C)(C)[C@@H]1CCC(C)=C[C@@H]21 [THCV, delta-9-tetrahydrocannabivarin]
Stability in Powder Concentrate (content by LCMSMS) ([1]; day 0): 0.680 mg/g powder
Stability in Powder Concentrate (content by LCMSMS) ([1]; day 1): 0.685 mg/g powder
Stability in Powder Concentrate (content by LCMSMS) ([1]; day 2): 0.699 mg/g powder
Stability in Powder Concentrate (content by LCMSMS) ([1]; day 3): 0.698 mg/g powder
Stability in Powder Concentrate (content by LCMSMS) ([1]; day 5): 0.676 mg/g powder
Stability in Powder Concentrate (content by LCMSMS) ([1]; day 8): 0.685 mg/g powder
Stability in Powder Concentrate (content by LCMSMS) ([1]; day 9): 0.693 mg/g powder
Stability in Powder Concentrate (content by LCMSMS) ([1]; day 10): 0.706 mg/g powder
Stability in Powder Concentrate (content by LCMSMS) ([1]; day 11): 0.708 mg/g powder
Stability in Powder Concentrate (content by LCMSMS) ([1]; day 12): 0.698 mg/g powder
Stability in Powder Concentrate (content by LCMSMS) ([1]; day 15): 0.684 mg/g powder
Stability in Powder Concentrate (content by LCMSMS) ([1]; day 16): 0.658 mg/g powder
Stability in Powder Concentrate (content by LCMSMS) ([1]; day 17): 0.681 mg/g powder
Stability in Powder Concentrate (content by LCMSMS) ([1]; day 18): 0.690 mg/g powder
Stability in Powder Concentrate (content by LCMSMS) ([1]; day 19): 0.705 mg/g powder
Stability in Powder Concentrate (content by LCMSMS) ([1]; day 22): 0.703 mg/g powder
Stability in Powder Concentrate (content by LCMSMS) ([1]; day 23): 0.687 mg/g powder
Stability in Powder Concentrate (content by LCMSMS) ([1]; day 24): 0.668 mg/g powder
Stability in Powder Concentrate (content by LCMSMS) ([1]; day 25): 0.689 mg/g powder
Stability in Powder Concentrate (content by LCMSMS) ([1]; day 26): 0.686 mg/g powder
Stability in Powder Concentrate (content by LCMSMS) ([1]; day 29): 0.706 mg/g powder
Stability in Powder Concentrate (content by LCMSMS) ([1]; day 30): 0.659 mg/g powder
Stability in Powder Concentrate (content by LCMSMS) ([1]; day 60): 0.702 mg/g powder
Stability in Powder Concentrate (content by LCMSMS) ([1]; day 90): 0.707 mg/g powder
Stability in Powder Concentrate (content by LCMSMS) ([1]; day 120): 0.658 mg/g powder
Stability in Powder Concentrate (content by LCMSMS) ([1]; day 150): 0.695 mg/g powder
Stability in Powder Concentrate (content by LCMSMS) ([1]; day 180): 0.685 mg/g powder
Stability in Powder Concentrate (content by LCMSMS) ([1]; day 210): 0.662 mg/g powder
Stability in Powder Concentrate (content by LCMSMS) ([1]; day 240): 0.700 mg/g powder
Stability in Powder Concentrate (content by LCMSMS) ([1]; day 270): 0.670 mg/g powder
Stability in Powder Concentrate (content by LCMSMS) ([1]; day 300): 0.685 mg/g powder
Stability in Powder Concentrate (content by LCMSMS) ([1]; day 330): 0.691 mg/g powder
Stability in Powder Concentrate (content by LCMSMS) ([1]; day 360): 0.668 mg/g powder
Stability in Powder Concentrate (content by LCMSMS) ([1]; day 390): 0.680 mg/g powder
Stability in Powder Concentrate (content by LCMSMS) ([1]; day 420): 0.671 mg/g powder
Stability in Powder Concentrate (content by LCMSMS) ([1]; day 450): 0.680 mg/g powder
Stability in Powder Concentrate (content by LCMSMS) ([1]; day 480): 0.695 mg/g powder
Stability in Powder Concentrate (content by LCMSMS) ([1]; day 510): 0.696 mg/g powder
Stability in Powder Concentrate (content by LCMSMS) ([1]; day 540): 0.664 mg/g powder
Stability in Powder Concentrate (content by LCMSMS) ([1]; day 570): 0.686 mg/g powder
Stability of Cannabinoids in AB Red ([2]; 8° C., 0 days): 3.22 µg/mL
Stability of Cannabinoids in AB Red ([2]; 8° C., 1 days): 3.19 µg/mL
Stability of Cannabinoids in AB Red ([2]; 8° C., 2 days): 3.17 µg/mL
Stability of Cannabinoids in AB Red ([2]; 8° C., 3 days): 3.20 µg/mL
Stability of Cannabinoids in AB Red ([2]; 8° C., 5 days): 3.24 µg/mL
Stability of Cannabinoids in AB Red ([2]; 8° C., 8 days): 3.17 µg/mL
Stability of Cannabinoids in AB Red ([2]; 8° C., 9 days): 3.14 µg/mL
Stability of Cannabinoids in AB Red ([2]; 8° C., 10 days): 3.14 µg/mL
Stability of Cannabinoids in AB Red ([2]; 8° C., 11 days): 3.24 µg/mL
Stability of Cannabinoids in AB Red ([2]; 8° C., 12 days): 3.25 µg/mL
Stability of Cannabinoids in AB Red ([2]; 8° C., 15 days): 3.19 µg/mL
Stability of Cannabinoids in AB Red ([2]; 8° C., 16 days): 3.25 µg/mL
Stability of Cannabinoids in AB Red ([2]; 8° C., 17 days): 3.12 µg/mL
Stability of Cannabinoids in AB Red ([2]; 8° C., 18 days): 3.17 µg/mL
Stability of Cannabinoids in AB Red ([2]; 8° C., 19 days): 3.19 µg/mL
Stability of Cannabinoids in AB Red ([2]; 8° C., 22 days): 3.22 µg/mL
Stability of Cannabinoids in AB Red ([2]; 8° C., 23 days): 3.25 µg/mL
Stability of Cannabinoids in AB Red ([2]; 8° C., 24 days): 3.15 µg/mL
Stability of Cannabinoids in AB Red ([2]; 8° C., 25 days): 3.25 µg/mL
Stability of Cannabinoids in AB Red ([2]; 8° C., 26 days): 3.13 µg/mL
Stability of Cannabinoids in AB Red ([2]; 8° C., 29 days): 3.22 µg/mL
Stability of Cannabinoids in AB Red ([2]; 8° C., 30 days): 3.20 µg/mL
Stability of Cannabinoids in AB Red ([2]; 8° C., 60 days): 3.11 µg/mL
Stability of Cannabinoids in AB Red ([2]; 8° C., 90 days): 3.10 µg/mL
Stability of Cannabinoids in AB Red ([2]; 8° C., 120 days): 3.10 µg/mL
Stability of Cannabinoids in AB Red ([2]; 8° C., 150 days): 3.15 µg/mL
Stability of Cannabinoids in AB Red ([2]; 8° C., 180 days): 3.10 µg/mL
Stability of Cannabinoids in AB Red ([2]; 8° C., 210 days): 3.15 µg/mL
Stability of Cannabinoids in AB Red ([2]; 8° C., 240 days): 3.08 µg/mL
Stability of Cannabinoids in AB Red ([2]; 8° C., 270 days): 3.15 µg/mL
Stability of Cannabinoids in AB Red ([2]; 8° C., 300 days): 3.15 µg/mL
Stability of Cannabinoids in AB Red ([2]; 8° C., 330 days): 3.15 µg/mL
Stability of Cannabinoids in AB Red ([2]; 8° C., 390 days): 3.08 µg/mL
Stability of Cannabinoids in AB Red ([2]; 8° C., 420 days): 3.13 µg/mL
Stability of Cannabinoids in AB Red ([2]; 8° C., 450 days): 3.08 µg/mL
Stability of Cannabinoids in AB Red ([2]; 8° C., 480 days): 3.05 µg/mL
Stability of Cannabinoids in AB Red ([2]; 8° C., 510 days): 2.95 µg/mL
Stability of Cannabinoids in AB Red ([2]; 8° C., 540 days): 2.99 µg/mL
Stability of Cannabinoids in AB Red ([2]; 8° C., 570 days): 2.95 µg/mL
Stability of Cannabinoids in AB Red ([2]; 21-25° C., 0 days): 3.22 µg/mL
Stability of Cannabinoids in AB Red ([2]; 21-25° C., 1 days): 3.13 µg/mL
Stability of Cannabinoids in AB Red ([2]; 21-25° C., 2 days): 3.20 µg/mL
Stability of Cannabinoids in AB Red ([2]; 21-25° C., 3 days): 3.25 µg/mL
Stability of Cannabinoids in AB Red ([2]; 21-25° C., 5 days): 3.25 µg/mL
Stability of Cannabinoids in AB Red ([2]; 21-25° C., 8 days): 3.19 µg/mL
Stability of Cannabinoids in AB Red ([2]; 21-25° C., 9 days): 3.17 µg/mL
Stability of Cannabinoids in AB Red ([2]; 21-25° C., 10 days): 3.09 µg/mL
Stability of Cannabinoids in AB Red ([2]; 21-25° C., 11 days): 3.24 µg/mL
Stability of Cannabinoids in AB Red ([2]; 21-25° C., 12 days): 3.24 µg/mL
Stability of Cannabinoids in AB Red ([2]; 21-25° C., 15 days): 3.20 µg/mL
Stability of Cannabinoids in AB Red ([2]; 21-25° C., 16 days): 3.20 µg/mL
Stability of Cannabinoids in AB Red ([2]; 21-25° C., 17 days): 3.11 µg/mL
Stability of Cannabinoids in AB Red ([2]; 21-25° C., 18 days): 3.19 µg/mL
Stability of Cannabinoids in AB Red ([2]; 21-25° C., 19 days): 3.19 µg/mL
Stability of Cannabinoids in AB Red ([2]; 21-25° C., 22 days): 3.18 µg/mL
Stability of Cannabinoids in AB Red ([2]; 21-25° C., 23 days): 3.23 µg/mL
Stability of Cannabinoids in AB Red ([2]; 21-25° C., 24 days): 3.25 µg/mL
Stability of Cannabinoids in AB Red ([2]; 21-25° C., 25 days): 3.24 µg/mL
Stability of Cannabinoids in AB Red ([2]; 21-25° C., 26 days): 3.11 µg/mL
Stability of Cannabinoids in AB Red ([2]; 21-25° C., 29 days): 3.15 µg/mL
Stability of Cannabinoids in AB Red ([2]; 21-25° C., 30 days): 3.15 µg/mL
Stability of Cannabinoids in AB Red ([2]; 21-25° C., 60 days): 3.18 µg/mL
Stability of Cannabinoids in AB Red ([2]; 21-25° C., 90 days): 3.05 µg/mL
Stability of Cannabinoids in AB Red ([2]; 21-25° C., 120 days): 3.09 µg/mL
Stability of Cannabinoids in AB Red ([2]; 21-25° C., 150 days): 3.17 µg/mL
Stability of Cannabinoids in AB Red ([2]; 21-25° C., 180 days): 3.10 µg/mL
Stability of Cannabinoids in AB Red ([2]; 21-25° C., 210 days): 3.03 µg/mL
Stability of Cannabinoids in AB Red ([2]; 21-25° C., 240 days): 3.18 µg/mL
Stability of Cannabinoids in AB Red ([2]; 21-25° C., 270 days): 3.04 µg/mL
Stability of Cannabinoids in AB Red ([2]; 21-25° C., 300 days): 3.14 µg/mL
Stability of Cannabinoids in AB Red ([2]; 21-25° C., 330 days): 3.19 µg/mL
Stability of Cannabinoids in AB Red ([2]; 21-25° C., 390 days): 3.04 µg/mL
Stability of Cannabinoids in AB Red ([2]; 21-25° C., 420 days): 3.10 µg/mL
Stability of Cannabinoids in AB Red ([2]; 21-25° C., 450 days): 3.14 µg/mL
Stability of Cannabinoids in AB Red ([2]; 21-25° C., 480 days): 3.04 µg/mL
Stability of Cannabinoids in AB Red ([2]; 21-25° C., 510 days): 3.01 µg/mL
Stability of Cannabinoids in AB Red ([2]; 21-25° C., 540 days): 2.95 µg/mL
Stability of Cannabinoids in AB Red ([2]; 21-25° C., 570 days): 2.98 µg/mL
